Measured values from patent US20250382269A1 (CFD Research Corporation, priority 2019, published 2025).
≈ marks a conversion by molar mass, not a printed value. Where “and” joins values, the source holds several entries; their conditions need not be identical. Equal entries are not always repeated. Where two headings read alike, the source gives them in different places.

Columns and labels:
Neisseria gonorrhoeae = assay: microbe, parasite or virus in culture; type: cell-based
[1] = test system: B. subtilis / cytotoxicity EC50; assay: Selectivity index (SI) using B. subtilis MICs
Method: Additionally, the antimicrobial compounds were analyzed for cytotoxicity. […] We utilized the standard MTT assay (Promega CellTiter 96) and GraphPad Prism 7 software to determine EC50 values for each analogue. Briefly, 20,000 HepG2 cells in 200 μl of the ATCC recommended media were seeded in each well of a 96-well plate with a moisture barrier created in the outermost wells. The cells were allowed to attach overnight at 37° C., and then observed under phase contrast microscopy for proper morphological characteristics. If cells appeared healthy and attached, test compounds were added in 7 concentrations from […] (n=3) from freshly prepared DMSO stock plates. […] Once incubations were complete, the spectrophotometric absorbance of the samples was measured at a wavelength of 595 nm. […] For the HepaRG assay, NoSpin HepaRG™ cells (Lonza, cat #NSHPRG) were thawed and plated with 20,000 cells per well. They were allowed to attach for 4 h (optimal DME profile per Lonza's testing) before dosing following the identical protocol as above.

[2] = Toxicity study in mice, body weight over 7 days; type: in vivo, Balb/c mice; details: for toxicity in mice (body weight over 7 days): 6-week-old Balb/c mice, vehicle 40% PEG300 in 0.9% NaCl
Text: The vehicle is 40% PEG300 solution in 0.9% NaCl. […] Thus, the compounds are useful for in vivo antimicrobial administration.

[3] = ATCC49226, read-out: Neisseria gonorrhoeae ATCC 49226 MIC, strain ATCC 49226
[4] = read-out: Neisseria gonorrhoeae WHO 901 MIC, strain WHO 901
[5] = read-out: Neisseria gonorrhoeae WHO 914 MIC, strain WHO 914
[6] = IP 0.1 mg/kg, Day 0, individual animals, 0.1 mg/kg
[7] = IP 0.1 mg/kg, Day 1, individual animals, 0.1 mg/kg
[8] = IP 0.1 mg/kg, Day 2, individual animals, 0.1 mg/kg
[9] = IP 0.1 mg/kg, Day 3, individual animals, 0.1 mg/kg
[10] = IP 0.1 mg/kg, Day 4, individual animals, 0.1 mg/kg
[11] = IP 0.1 mg/kg, Day 5, individual animals, 0.1 mg/kg
[12] = IP 0.1 mg/kg, Day 6, individual animals, 0.1 mg/kg
[13] = IP 0.1 mg/kg, Day 7, individual animals, 0.1 mg/kg
[14] = IP 1 mg/kg, Day 0, individual animals, 1 mg/kg
[15] = IP 1 mg/kg, Day 1, individual animals, 1 mg/kg
[16] = IP 1 mg/kg, Day 3, individual animals, 1 mg/kg
[17] = IP 1 mg/kg, Day 4, individual animals, 1 mg/kg
[18] = IP 1 mg/kg, Day 5, individual animals, 1 mg/kg
[19] = IP 1 mg/kg, Day 6, individual animals, 1 mg/kg
[20] = IP 1 mg/kg, Day 7, individual animals, 1 mg/kg
[21] = IP 10 mg/kg, Day 0, individual animals, 10 mg/kg
[22] = IP 10 mg/kg, Day 1, individual animals, 10 mg/kg
[23] = IP 10 mg/kg, Day 2, individual animals, 10 mg/kg
[24] = IP 10 mg/kg, Day 3, individual animals, 10 mg/kg
[25] = IP 10 mg/kg, Day 6, individual animals, 10 mg/kg
[26] = IP 10 mg/kg, Day 7, individual animals, 10 mg/kg

Brc1ccc(Oc2c[nH]c3ccccc23)cc1 [3-(4-bromophenoxy)-1H-indole]
MIC (Neisseria gonorrhoeae; [3]): > 8 µg/mL
MIC (Neisseria gonorrhoeae; [4]): 4 µg/mL (≈ 13.9 µM)
MIC (Neisseria gonorrhoeae; [5]): > 8 µg/mL

COc1ccc2[nH]cc(Sc3ccc(Br)cc3)c2c1 [Compound 172E, 3-((4-bromophenyl)thio)-5-methoxy-1H-indole]
SI (selectivity index) [1]: 14.9

Brc1ccc(Oc2c[nH]c3ccc(Br)cc23)cc1 [5-bromo-3-(4-bromophenoxy)-1H-indole]
MIC (Neisseria gonorrhoeae; [3]): 4 µg/mL (≈ 10.9 µM)
MIC (Neisseria gonorrhoeae; [4]): 2 µg/mL (≈ 5.45 µM)
MIC (Neisseria gonorrhoeae; [5]): 4 µg/mL (≈ 10.9 µM)

Cc1[nH]c2ccc(Br)cc2c1Sc1ccccc1Br [Compound 174AZ, 5-bromo-3-((2-bromophenyl)thio)-2-methyl-1H-indole]
toxicity in mice (body weight over 7 days) [2]: did not have significant toxicity
Animal body weight [2, 6]: 0.023 kg (2×) and 0.025 kg
Animal body weight [2, 7]: 0.022 kg and 0.024 kg and 0.023 kg
Animal body weight [2, 8]: 0.022 kg and 0.025 kg and 0.023 kg
Animal body weight [2, 9]: 0.022 kg and 0.025 kg and 0.023 kg
Animal body weight [2, 10]: 0.023 kg (2×) and 0.025 kg
Animal body weight [2, 11]: 0.022 kg and 0.025 kg and 0.023 kg
Animal body weight [2, 12]: 0.022 kg and 0.025 kg and 0.023 kg
Animal body weight [2, 13]: 0.022 kg (2×) and 0.025 kg
Animal body weight [2, 14]: 0.024 kg (2×) and 0.025 kg
Animal body weight [2, 15]: 0.023 kg and 0.024 kg (2×)
Animal body weight ([2]; IP 1 mg/kg, Day 2, individual animals): 0.024 kg
Animal body weight [2, 16]: 0.025 kg and 0.024 kg (2×)
Animal body weight [2, 17]: 0.025 kg (2×) and 0.024 kg
Animal body weight [2, 18]: 0.025 kg and 0.023 kg and 0.024 kg
Animal body weight [2, 19]: 0.025 kg and 0.024 kg (2×)
Animal body weight [2, 20]: 0.025 kg and 0.023 kg and 0.024 kg
Animal body weight [2, 21]: 0.023 kg (2×) and 0.024 kg
Animal body weight [2, 22]: 0.022 kg (2×) and 0.023 kg
Animal body weight [2, 23]: 0.022 kg and 0.023 kg (2×)
Animal body weight [2, 24]: 0.022 kg (2×) and 0.023 kg
Animal body weight ([2]; IP 10 mg/kg, Day 4, individual animals): 0.023 kg
Animal body weight ([2]; IP 10 mg/kg, Day 5, individual animals): 0.023 kg
Animal body weight [2, 25]: 0.022 kg (2×) and 0.023 kg
Animal body weight [2, 26]: 0.023 kg (2×) and 0.022 kg

Fc1ccc(Sc2c[nH]c3ccc(Br)cc23)cc1 [Compound 174P, 5-bromo-3-((4-fluorophenyl)thio)-1H-indole]
SI (selectivity index) [1]: 24.6

Fc1ccccc1Sc1c[nH]c2ccc(Br)cc12 [Compound 174AU, 5-bromo-3-((2-fluorophenyl)thio)-1H-indole]
toxicity in mice (body weight over 7 days) [2]: did not have significant toxicity
Animal body weight [2, 6]: 0.026 kg and 0.023 kg and 0.024 kg
Animal body weight [2, 7]: 0.024 kg and 0.022 kg and 0.023 kg
Animal body weight [2, 8]: 0.025 kg and 0.022 kg and 0.023 kg
Animal body weight [2, 9]: 0.025 kg and 0.022 kg and 0.023 kg
Animal body weight [2, 10]: 0.025 kg and 0.022 kg and 0.023 kg
Animal body weight [2, 11]: 0.025 kg and 0.023 kg and 0.024 kg
Animal body weight [2, 12]: 0.025 kg and 0.022 kg and 0.023 kg
Animal body weight [2, 13]: 0.024 kg and 0.022 kg and 0.023 kg
Animal body weight [2, 14]: 0.026 kg and 0.022 kg and 0.025 kg
Animal body weight [2, 15]: 0.025 kg (2×) and 0.022 kg
Animal body weight ([2]; IP 1 mg/kg, Day 2, individual animals, 1 mg/kg): 0.026 kg and 0.022 kg and 0.025 kg
Animal body weight [2, 16]: 0.026 kg and 0.022 kg and 0.025 kg
Animal body weight [2, 17]: 0.026 kg and 0.023 kg and 0.025 kg
Animal body weight [2, 18]: 0.026 kg and 0.023 kg and 0.025 kg
Animal body weight [2, 19]: 0.025 kg (2×) and 0.023 kg
Animal body weight [2, 20]: 0.026 kg and 0.024 kg and 0.025 kg
Animal body weight [2, 21]: 0.024 kg (2×) and 0.025 kg
Animal body weight [2, 22]: 0.023 kg (2×) and 0.024 kg
Animal body weight [2, 23]: 0.023 kg (2×) and 0.025 kg
Animal body weight [2, 24]: 0.024 kg and 0.023 kg and 0.025 kg
Animal body weight ([2]; IP 10 mg/kg, Day 4, individual animals, 10 mg/kg): 0.023 kg (2×) and 0.025 kg
Animal body weight ([2]; IP 10 mg/kg, Day 5, individual animals, 10 mg/kg): 0.023 kg (2×) and 0.026 kg
Animal body weight [2, 25]: 0.022 kg and 0.023 kg and 0.026 kg
Animal body weight [2, 26]: 0.022 kg and 0.023 kg and 0.026 kg

Fc1ccc2[nH]cc(Cc3ccccc3F)c2c1
MIC (Neisseria gonorrhoeae; [3]): 8 µg/mL (≈ 32.9 µM)
MIC (Neisseria gonorrhoeae; [4]): 8 µg/mL (≈ 32.9 µM)
MIC (Neisseria gonorrhoeae; [5]): > 8 µg/mL

Nc1ccccc1Sc1c[nH]c2ccc(C(F)(F)F)cc12 [Compound 177C, 2-((5-(trifluoromethyl)-1H-indol-3-yl)thio)aniline]
SI (selectivity index) [1]: 123.6

FC(F)(F)c1ccc2[nH]cc(Sc3ccccc3C(F)(F)F)c2c1 [Compound 177F, 5-(trifluoromethyl)-3-((2-(trifluoromethyl)phenyl)thio)-1H-indole]
SI (selectivity index) [1]: 19.1

CCc1ccccc1Sc1c[nH]c2ccc(C(F)(F)F)cc12 [Compound 177G, 3-((2-ethylphenyl)thio)-5-(trifluoromethyl)-1H-indole]
SI (selectivity index) [1]: 18.9
